What was measured:
Assay in all cases: Test C postemergence
Type in all cases: in vivo
[1] = system: Italian ryegrass (Lolium multiflorum); conditions: Lolium multiflorum, post-emergence, 336 h, Postemergence, scale 0 to 100, read-out: Plant response rating, Ryegrass, Italian
In short: (§1)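 Treatment is preemergence to seeds in a loam and sand soil, or postemergence to plants 2 to 18 cm high in a peat moss-based medium. The compound is delivered in a non-phytotoxic solvent mixture including surfactant. Effects are judged by eye 13 to 15 days later on a 0 to 100 scale.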

[2] = system: barnyardgrass (Echinochloa crus-galli); conditions: Echinochloa crus-galli, post-emergence, Postemergence, scale 0 to 100, read-out: Plant response rating, Barnyardgrass
In short: as §1

[3] = system: blackgrass (Alopecurus myosuroides); conditions: Alopecurus myosuroides, post-emergence, 336 h, Postemergence, scale 0 to 100, read-out: Plant response rating, Blackgrass
In short: as §1

[4] = system: chickweed (common chickweed, Stellaria media); conditions: Stellaria media, post-emergence, Postemergence, scale 0 to 100, read-out: Plant response rating, Chickweed
In short: as §1

[5] = system: giant foxtail (Setaria faberii); conditions: Setaria faberi, post-emergence, 336 h, Postemergence, scale 0 to 100, read-out: Plant response rating, Foxtail, Giant
In short: as §1

[6] = system: johnsongrass (Sorghum halepense); conditions: Sorghum halepense, post-emergence, 336 h, Postemergence, scale 0 to 100, read-out: Plant response rating, Johnsongrass
In short: as §1

kochia (Kochia scoparia) = conditions: Bassia scoparia, post-emergence, Postemergence, scale 0 to 100, read-out: Plant response rating, Kochia
In short: as §1

[7] = system: large (Lg) crabgrass (Digitaria sanguinalis); conditions: Digitaria sanguinalis, post-emergence, 336 h, Postemergence, scale 0 to 100, read-out: Plant response rating, Crabgrass, Large
In short: as §1

[8] = system: morningglory (Ipomoea coccinea); conditions: Ipomoea, post-emergence, 336 h, Postemergence, scale 0 to 100, read-out: Plant response rating, Morningglory
In short: as §1

[9] = system: oilseed rape (Brassica napus); conditions: Brassica napus, post-emergence, Postemergence, scale 0 to 100, read-out: Plant response rating, Oilseed Rape
In short: as §1

[10] = system: pigweed (Amaranthus retroflexus); conditions: Amaranthus retroflexus, post-emergence, 336 h, Postemergence, scale 0 to 100, read-out: Plant response rating, Pigweed
In short: as §1

[11] = system: velvetleaf (Abutilon theophrasti); conditions: Abutilon theophrasti, post-emergence, Postemergence, scale 0 to 100, read-out: Plant response rating, Velvetleaf
In short: as §1

wild oat (Avena fatua) = conditions: Avena fatua, post-emergence, Postemergence, scale 0 to 100, read-out: Plant response rating, Oat, Wild
In short: as §1

[12] = system: winter wheat (Triticum aestivum); conditions: Triticum aestivum, post-emergence, 336 h, Postemergence, scale 0 to 100, read-out: Plant response rating, Wheat
In short: as §1

[13] = system: yellow nutsedge (Cyperus esculentus); conditions: Cyperus, post-emergence, 336 h, Postemergence, scale 0 to 100, read-out: Plant response rating, Nutsedge, Yellow
In short: as §1

## Fc1cccc(Oc2ncc(Cl)cn2)c1Oc1ncc(Br)cn1 [Compound 27, 5-bromo-2-[2-fluoro-6-[(5-chloro-2-pyrimidinyl)oxy]phenoxy]pyrimidine]
[1]; 31 g ai/ha
  pest or weed control at 31 g/ha: 0%
[1]; 62 g ai/ha
  pest or weed control at 62 g/ha: 0%
[1]; 125 g ai/ha
  pest or weed control at 125 g/ha: 5%
[1]; 250 g ai/ha
  pest or weed control at 250 g/ha: 5%
[2]; 31 g ai/ha
  pest or weed control at 31 g/ha: 5%
[2]; 62 g ai/ha
  pest or weed control at 62 g/ha: 5%
[2]; 125 g ai/ha
  pest or weed control at 125 g/ha: 5%
[2]; 250 g ai/ha
  pest or weed control at 250 g/ha: 5%
[3]; 31 g ai/ha
  pest or weed control at 31 g/ha: 5%
[3]; 62 g ai/ha
  pest or weed control at 62 g/ha: 5%
[3]; 125 g ai/ha
  pest or weed control at 125 g/ha: 5%
[3]; 250 g ai/ha
  pest or weed control at 250 g/ha: 5%
[4]; 31 g ai/ha
  pest or weed control at 31 g/ha: 45%
[4]; 62 g ai/ha
  pest or weed control at 62 g/ha: 40%
[4]; 125 g ai/ha
  pest or weed control at 125 g/ha: 70%
[4]; 250 g ai/ha
  pest or weed control at 250 g/ha: 80%
[5]; 31 g ai/ha
  pest or weed control at 31 g/ha: 0%
[5]; 62 g ai/ha
  pest or weed control at 62 g/ha: 5%
[5]; 125 g ai/ha
  pest or weed control at 125 g/ha: 5%
[5]; 250 g ai/ha
  pest or weed control at 250 g/ha: 10%
[6]; 31 g ai/ha
  pest or weed control at 31 g/ha: 0%
[6]; 62 g ai/ha
  pest or weed control at 62 g/ha: 5%
[6]; 125 g ai/ha
  pest or weed control at 125 g/ha: 5%
[6]; 250 g ai/ha
  pest or weed control at 250 g/ha: 10%
Kochia (Kochia scoparia); 31 g ai/ha
  pest or weed control at 31 g/ha: 40%
Kochia (Kochia scoparia); 62 g ai/ha
  pest or weed control at 62 g/ha: 80%
Kochia (Kochia scoparia); 125 g ai/ha
  pest or weed control at 125 g/ha: 85%
Kochia (Kochia scoparia); 250 g ai/ha
  pest or weed control at 250 g/ha: 95%
[7]; 31 g ai/ha
  pest or weed control at 31 g/ha: 5%
[7]; 62 g ai/ha
  pest or weed control at 62 g/ha: 5%
[7]; 125 g ai/ha
  pest or weed control at 125 g/ha: 10%
[7]; 250 g ai/ha
  pest or weed control at 250 g/ha: 20%
[8]; 31 g ai/ha
  pest or weed control at 31 g/ha: 65%
[8]; 62 g ai/ha
  pest or weed control at 62 g/ha: 75%
[8]; 125 g ai/ha
  pest or weed control at 125 g/ha: 70%
[8]; 250 g ai/ha
  pest or weed control at 250 g/ha: 90%
[9]; 31 g ai/ha
  plant injury at 31 g/ha: 30%
[9]; 62 g ai/ha
  plant injury at 62 g/ha: 50%
[9]; 125 g ai/ha
  plant injury at 125 g/ha: 55%
[9]; 250 g ai/ha
  plant injury at 250 g/ha: 60%
[10]; 31 g ai/ha
  pest or weed control at 31 g/ha: 85%
[10]; 62 g ai/ha
  pest or weed control at 62 g/ha: 90%
[10]; 125 g ai/ha
  pest or weed control at 125 g/ha: 95%
[10]; 250 g ai/ha
  pest or weed control at 250 g/ha: 98%
[11]; 31 g ai/ha
  pest or weed control at 31 g/ha: 15%
[11]; 62 g ai/ha
  pest or weed control at 62 g/ha: 35%
[11]; 125 g ai/ha
  pest or weed control at 125 g/ha: 65%
[11]; 250 g ai/ha
  pest or weed control at 250 g/ha: 65%
Wild oat (Avena fatua); 31 g ai/ha
  pest or weed control at 31 g/ha: 0%
Wild oat (Avena fatua); 62 g ai/ha
  pest or weed control at 62 g/ha: 5%
Wild oat (Avena fatua); 125 g ai/ha
  pest or weed control at 125 g/ha: 10%
Wild oat (Avena fatua); 250 g ai/ha
  pest or weed control at 250 g/ha: 15%
[12]; 31 g ai/ha
  plant injury at 31 g/ha: 0%
[12]; 62 g ai/ha
  plant injury at 62 g/ha: 0%
[12]; 125 g ai/ha
  plant injury at 125 g/ha: 0%
[12]; 250 g ai/ha
  plant injury at 250 g/ha: 0%
[13]; 31 g ai/ha
  pest or weed control at 31 g/ha: 0%
[13]; 62 g ai/ha
  pest or weed control at 62 g/ha: 5%
[13]; 125 g ai/ha
  pest or weed control at 125 g/ha: 10%
[13]; 250 g ai/ha
  pest or weed control at 250 g/ha: 10%

— patent publication US20170190671A1, “BIS(ARYL)CATECHOL DERIVATIVES AS HERBICIDES” (E I DU PONT DE NEMOURS AND COMPANY, priority 2014, published 2017)
